Results taken from patent US20030232986A1, “Inhibitors of caspases” (Vertex Pharmaceuticals Incorporated, priority 1998, published 2003).

How the values were obtained:
[1] = target: T1, Caspase-1 (Homo sapiens, UniProt P29466); experiment: Caspase-1 enzyme inhibition (Ki); format: biochemical; details: substrate Suc-YVAD-pNA 80 μM, 37° C., pH 7.5
T1 sequence (P29466 120-297 limits assumed): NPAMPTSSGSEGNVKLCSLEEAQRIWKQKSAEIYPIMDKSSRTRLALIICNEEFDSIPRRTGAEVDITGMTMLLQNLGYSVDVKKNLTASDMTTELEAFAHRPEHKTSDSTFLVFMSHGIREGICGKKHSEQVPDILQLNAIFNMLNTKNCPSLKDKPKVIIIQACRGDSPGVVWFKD
T1 sequence (P29466 317-404 limits assumed): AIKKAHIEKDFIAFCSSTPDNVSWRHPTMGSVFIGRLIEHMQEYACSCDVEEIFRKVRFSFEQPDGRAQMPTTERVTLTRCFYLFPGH
Procedure: Ki values for test compounds with the various caspases were obtained by the method of Margolin et al. (J. Biol. Chem., 272 pp. 7223-7228 (1997)). Assays were performed in 10 mM Tris (Sigma Corp, St Louis Mo.) pH 7.5, 1 mM Dithiothreitol (DTT, Research Organic INC, Cleveland, Ohio) and 0.1% CHAPS (Pierce, Rockford Ill.) at 37° C. For caspase-3, a solution of 8% glycerol was added to the assay buffer to improve enzyme stability. A 65 μL aliquot of the assay buffer and 5 μL aliquot of the appropriate dilutions of inhibitor in DMSO where pipetted into a 96 well plate, treated with 10 μL of caspase, then diluted in assay buffer (0.5-40 nM active protein by active site titration). A control containing DMSO but no compound was included for each determination. The plates were then incubated for 15 minutes at 37° C., before addition of the appropriate substrate (20 μL, final concentration 1-4×KM, final assay volume 100 μL) to initiate the reaction. Reaction rates were measured at 37° C. either by following the time dependant increase in absorbance at 405 nm (for the pNA substrates) or in fluorescence (Ex 390, Em 460) (for the AMC substrates). The rates obtained were plotted against inhibitor concentration and the data fit to the Morrison tight-binding equation for competitive inhibitors (Morrison, J. F., Biochem. Biophys. Acta, 185 pp. 269-286 (1969)). The substrates used for the individual assays were as follows:
Caspase-1 Suc-YVAD-pNA (Bachem, King of Prussia, Pa.) (final concentration in the assay 80 μM),

[2] = tested on: Human whole blood, IL-1β production; experiment: Whole blood assay for IL-1β production; format: cell-based; details: LPS-stimulated whole blood, IL-1β by ELISA
Procedure: The whole blood assay is a simple method for measuring the production of IL-1β (or other cytokines) and the activity of potential inhibitors. The complexity of this assay system, with its full complement of lymphoid and inflammatory cell types, spectrum of plasma proteins and red blood cells is an ideal in vitro representation of human in vivo physiologic conditions.
Set incubator or water bath at 30° C. Aliquot 0.25 ml of blood into 1.5 ml eppendorf tubes. Note: be sure to invert the whole blood sample tubes after every two aliquots. Differences in replicates may result if the cells sediment and are not uniformly suspended. Use of a positive displacement pipette will also minimize differences between replicate aliquots.
Prepare drug dilutions in sterile pyrogen-free saline by serial dilution. A dilution series which brackets the apparent Ki for a test compound determined in an ICE inhibition assay is generally used for the primary compound screen. For extremely hydrophobic compounds, prepare compound dilutions in fresh plasma obtained from the same blood donor or in PBS-containing 5% DMSO to enhance solubility.
Add 25 μl test compound dilution or vehicle control and gently mix the sample. Then add 5.0 μl LPS solution (250 ng/ml stocked prepared fresh: 5.0 ng/ml final concentration LPS), and mix again. Incubate the tubes at […] in a water bath for 16-18 hr with occasional mixing. Alternatively, the tubes can be placed in a rotator set at 4 rpm for the same incubation period. This assay should be set up in duplicate or triplicate with the following controls: negative control—no LPS; positive control—no test inhibitor; vehicle control—the highest concentration of DMSO or compound solvent used in the experiment. Additional saline is added to all control tubes to normalize volumes for both control and experimental whole blood test samples.
After the incubation period, whole blood samples are centrifuged for 10 minutes at ^˜2000 rpm in the microfuge, plasma is transferred to a fresh microfuge tube and centrifuged at 1000×g to pellet residual platelets if necessary. Plasma samples may be stored frozen at −70° C. prior to assay for cytokine levels by ELISA.
R & D Systems (614 McKinley Place N.E. Minneapolis, Minn. 55413) Quantikine kits may be used for measurement of IL-1β and TNF-α. The assays are performed according to the manufacture's directions. IL-1β levels of ^˜1-5 ng/ml in positive controls among a range of individuals may be observed. A 1:200 dilution of plasma for all samples is usually sufficient for experiments for ELISA results to fall on the linear range of the ELISA standard curves. It may be necessary to optimize standard dilutions if you observe differences in the whole blood assay. Nerad, J. L. et al., J. Leukocyte Biol., 52, pp. 687-692 (1992).

| Structure (SMILES) | Ki [1] | IC50 [2] |
| --- | --- | --- |
| C[C@H](NC(=O)c1cc(Cl)cc(Cl)c1)C(=O)N1CCC[C@H]1C(=O)N[C@H](C=O)CC(=O)O [Example 7ai] | < 10 nM | 2500 to 7500 nM |
| C[C@H](NC(=O)c1ccc(Cl)c(Cl)c1)C(=O)N1CCC[C@H]1C(=O)N[C@H](C=O)CC(=O)O [Example 7aj] | < 10 nM | > 7500 nM |
| C[C@H](NC(=O)c1ccc(F)c(Cl)c1)C(=O)N1CCC[C@H]1C(=O)N[C@H](C=O)CC(=O)O [Example 7ak] | < 10 nM | 2500 to 7500 nM |
| Cc1c(Cl)cccc1C(=O)N[C@@H](C)C(=O)N1CCC[C@H]1C(=O)N[C@H](C=O)CC(=O)O [Example 7ao] | 10 to 1000 nM | 2500 to 7500 nM |
| C[C@H](NC(=O)C(=O)c1ccccc1)C(=O)N1CCC[C@H]1C(=O)N[C@H](C=O)CC(=O)O [Example 7ap] | 10 to 1000 nM | > 7500 nM |
| CC[C@H](NC(=O)c1ccc(N)c(Cl)c1)C(=O)N1CC(F)(F)C[C@H]1C(=O)N[C@H](C=O)CC(=O)O [Example 27e] | 10 to 1000 nM | < 2500 nM |
| C[C@H](NC(=O)c1cccc2ccccc12)C(=O)N1CC(F)(F)C[C@H]1C(=O)N[C@H](C=O)CC(=O)O [Example 27f] | 10 to 1000 nM | 2500 to 7500 nM |
| COc1c(Cl)cc(C(=O)N[C@@H](C)C(=O)N2CC(F)(F)C[C@H]2C(=O)N[C@H](C=O)CC(=O)O)cc1Cl [Example 27h] | 10 to 1000 nM | 2500 to 7500 nM |
| C[C@H](NC(=O)c1nccc2ccccc12)C(=O)N1CC(F)(F)C[C@H]1C(=O)N[C@H](C=O)CC(=O)O [Example 27l] | 10 to 1000 nM | 2500 to 7500 nM |
| C[C@H](NC(=O)c1cccc(C(F)(F)F)c1)C(=O)N1CC(F)(F)C[C@H]1C(=O)N[C@H](C=O)CC(=O)O [Example 27m] | 10 to 1000 nM | 2500 to 7500 nM |
| C[C@H](NC(=O)c1ccc2[nH]cnc2c1)C(=O)N1CC(F)(F)C[C@H]1C(=O)N[C@H](C=O)CC(=O)O [Example 27n] | 10 to 1000 nM | < 2500 nM |
| COc1ccc(C(=O)N[C@@H](C)C(=O)N[C@@H](C)C(=O)N[C@H](C=O)CC(=O)O)cc1 [Example 29s] | 10 to 1000 nM | < 2500 nM |
| C[C@H](NC(=O)c1c(F)c(F)c(N)c(F)c1F)C(=O)N1CCC[C@H]1C(=O)N[C@H](C=O)CC(=O)O [Example 122p, 3-({1-[2-(4-Amino-2,3,5,6-tetrafluoro-benzoylamino)-propionyl]-pyrrolidine-2-carbonyl}-amino)-4-oxo-butyric acid] | < 10 nM | 2500 to 7500 nM |

Continued, values first:

| Ki [1] | IC50 [2] | Structure (SMILES) |
| --- | --- | --- |
| < 10 nM | 2500 to 7500 nM | CNc1ccc(C(=O)N[C@@H](C)C(=O)N2CCC[C@H]2C(=O)N[C@H](C=O)CC(=O)O)cc1Cl [Example 7aa] |
| 10 to 1000 nM | 2500 to 7500 nM | C[C@H](NC(=O)c1cccc(C#N)c1)C(=O)N1CCC[C@H]1C(=O)N[C@H](C=O)CC(=O)O [Example 7ad] |
| < 10 nM | 2500 to 7500 nM | C[C@H](NC(=O)c1cccc(Cl)c1)C(=O)N1CCC[C@H]1C(=O)N[C@H](C=O)CC(=O)O [Example 7ah] |
| < 10 nM | 2500 to 7500 nM | C[C@H](NC(=O)c1cccc(C(F)(F)F)c1)C(=O)N1CCC[C@H]1C(=O)N[C@H](C=O)CC(=O)O [Example 7am] |
| < 10 nM | 2500 to 7500 nM | Cc1ccc(Cl)cc1C(=O)N[C@@H](C)C(=O)N1CCC[C@H]1C(=O)N[C@H](C=O)CC(=O)O [Example 7an] |
| < 10 nM | < 2500 nM | CC(C)[C@H](NC(=O)c1ccc(N)c(Cl)c1)C(=O)N1CC(F)(F)C[C@H]1C(=O)N[C@H](C=O)CC(=O)O [Example 27d] |
| < 10 nM | 2500 to 7500 nM | C[C@H](NC(=O)c1cc(Cl)c(O)c(Cl)c1)C(=O)N1CC(F)(F)C[C@H]1C(=O)N[C@H](C=O)CC(=O)O [Example 27g] |
| 10 to 1000 nM | 2500 to 7500 nM | COc1c(C)cc(C(=O)N[C@@H](C)C(=O)N2CC(F)(F)C[C@H]2C(=O)N[C@H](C=O)CC(=O)O)cc1C [Example 27i] |
| 10 to 1000 nM | 2500 to 7500 nM | C[C@H](NC(=O)c1ccc(N(C)C)c(Cl)c1)C(=O)N1CCC[C@H]1C(=O)N[C@H](C=O)CC(=O)O [Example 122m, 3-({1-[2-(3-Chloro-4-dimethylamino-benzoylamino)-propionyl]-pyrrolidine-2-carbonyl}-amino)-4-oxo-butyric acid] |
| 10 to 1000 nM | 2500 to 7500 nM | C[C@H](NC(=O)c1ccc2ncccc2c1)C(=O)N1CCC[C@H]1C(=O)N[C@H](C=O)CC(=O)O [Example 122q, 4-Oxo-3-[(1-{2-[(quinoline-6-carbonyl)-amino]-propionyl}-pyrrolidine-2-carbonyl)-amino]-butyric acid] |
| 10 to 1000 nM | 2500 to 7500 nM | C[C@H](NC(=O)c1ccc(NC(=O)C(C)(C)C)c(Cl)c1)C(=O)N1CCC[C@H]1C(=O)N[C@H](C=O)CC(=O)O [Example 122s, 3-[(1-{2-[3-Chloro-4-(2,2-dimethyl-propionylamino)-benzoylamino]-propionyl}-pyrrolidine-2-carbonyl)-amino]-4-oxo-butyric acid] |
| 10 to 1000 nM | < 2500 nM | CC(NC(=O)c1ccc(N)c(Cl)c1)C(=O)N1CC(F)CC1C(=O)NC(C=O)CC(=O)O (stereo not drawn) [Example 123a, 3-({1-[2-(4-Amino-3-chloro-benzoylamino)-propionyl]-4-fluoro-pyrrolidine-2-carbonyl}-amino)-4-oxo-butyric acid] |
| 10 to 1000 nM | 2500 to 7500 nM | CC(=O)Nc1ccc(C(=O)NC(C)C(=O)N2CC(F)(F)CC2C(=O)NC(C=O)CC(=O)O)cc1Cl (stereo not drawn) [Example 123b, 3-({1-[2-(4-Acetylamino-3-chloro-benzoylamino)-propionyl]-4,4-difluoro-pyrrolidine-2-carbonyl}-amino)-4-oxo-butyric acid] |
| 10 to 1000 nM | 2500 to 7500 nM | Nc1ccc(C(=O)NCC(=O)N2CC(F)(F)C[C@H]2C(=O)N[C@H](C=O)CC(=O)O)cc1Cl [Example G2, 3-({1-[(4-Amino-3-chloro-benzoylamino)-acetyl]-4,4-difluoro-pyrrolidine-2-carbonyl}-amino)-4-oxo-butyric acid] |
